Laboratory results from patent publication US9005905B2, “Method of identifying transmembrane protein-interacting compounds” (Omeros Corporation, priority 2002, dated 2015).
Like-named read-outs stand apart in the source and are kept apart here.

Key:
M1-NLS-GFP = M1-NLS-GFP (Homo sapiens, UniProt P11229, A424K/D427R/R426K); settings: 10 micromolar, 48 hours
Experimental: These cells were treated with iprotropium bromide (10 micromolar). The medium containing antagonist was replaced at 6, 22, 30 and 42 hours after transfection. Control cells received no antagonist treatment. The cells were examined by confocal microscopy.

5HT1B-NLS-GFP = molecular target: T1, 5HT1B-NLS-GFP (Homo sapiens, UniProt P28222, D375K/E374K/Q378R); test: 5HT1B-NLS-GFP translocation, HEK cells; type: cell-based; settings: 10 micromolar, 48 hours
T1 construct: expressed in transfected cells; host or cells: HEK cells
Experimental: HEK cells were transfected with a DNA construct encoding the serotonin 5HT1B-NLS-GFP (2 micrograms). The cells were transfected with Ds-red-NUC to verify the localisation of the nucleus (1 microgram). Cells were treated with methysergide (10 micromolar), a serotonin receptor antagonist. […] Control cells received no antagonist. The cells were examined by confocal microscopy.

DAT-NLS-RFP = molecular target: T2, DAT-NLS-RFP (Homo sapiens, UniProt Q01959, C581K/S582R/Y578K); test: DAT-NLS-RFP trafficking to the nucleus, HEK cells; type: cell-based; settings: 10 micromolar, 48 hours
T2 construct: The full length cDNA encoding the human dopamine transporter (hDAT) was amplified using DAT in pcDNA3 as template; expressed in transfected cells; host or cells: HEK cells
Experimental: HEK cells were transfected with a DNA construct encoding DAT-NLS-RFP (2 micrograms) and incubated for 48 hours. At 6, 22, 30 and 42 hours after transfection, the cells were treated with cocaine or amphetamine (final concentration 10 micromolar), or left untreated. The cells were examined by confocal microscopy.

DAT-NLS-GFP = DAT-NLS-GFP (Homo sapiens, UniProt Q01959, C581K/S582R/Y578K); test: DAT-NLS-GFP translocation, HEK cells; type: cell-based; settings: 1 micromolar, 48 hours
Experimental: HEK cells were transfected with a DNA construct encoding DAT-NLS-GFP (2 micrograms) and incubated for 48 hours. […] The cells were examined by confocal microscopy.
HEK cells were transfected with a construct encoding DAT-NLS-GFP (2 micrograms) and incubated for 48 hours. […] The cells were examined by confocal microscopy.
Control HEK cells were transfected with DAT-NLS-GFP incubated for 48 hours and not treated with drug.

D1-NLS-GFP [1] = molecular target: T3, D1-NLS-GFP (Homo sapiens, UniProt P21728, A340R/D336K/F337K/R338F); test: D1-NLS-GFP (with D1-WT) translocation, antagonist dose response, HEK cells, confocal microscopy; type: cell-based; settings: 48 hours
T3 construct: expressed in transfected cells; host or cells: HEK cells (HEK293T)
Experimental: Test compounds were prepared in a stock solution of 1 millimolar concentration and diluted in growth medium to achieve a final concentration ranging between 10 nanomolar and 10 micromolar when added to cell plates. Fresh compound-containing medium was added to cells at 6 hours, 22 hours, 30 hours and 42 hours after transfection.
Cells were visualised using the LSM510 Zeiss confocal laser microscope. GFP was visualised following excitation with the argon laser at 488 nm excitation wavelength and the DsRed was visualised following excitation with the helium neon laser at 543 nm wavelength for excitation. The confocal images were captured on disk and evaluated. In each experiment, multiple fields of cells (n=6-8 with 30-90 cells each) were counted and evaluated for localisation of the signal on the cell surface, in the cytoplasm and in the nucleus.
HEK cells were transfected with DNA encoding D1-NLS-GFP (2 micrograms), and D1-WT (6 micrograms) for 48 hours. […] The medium containing antagonist was changed at 6, 22, 30 and 42 hours after transfection. Control cells received no antagonist treatment.

D1-IC1-NLS-GFP = molecular target: T4, D1-IC1-NLS-GFP (Homo sapiens, UniProt P21728, H53R/I49K/R50K/R52K); test: D1-IC1-NLS-GFP trafficking, HEK cells; type: cell-based; settings: 1 micromolar, 48 hours
T4 construct: expressed in transfected cells; host or cells: HEK cells
Description: (§1) Nuclei were visualised with DsRED-NUC (2 micrograms). The cells were examined by confocal microscopy.

D1-IC3-NLS-GFP = D1-IC3-NLS-GFP (Homo sapiens, UniProt P21728, M262K/S263K); test: D1-IC3-NLS-GFP trafficking, HEK cells; type: cell-based; settings: 10 micromolar to 100 nanomolar (four concentrations), 48 hours
Description: as §1

D1-2NLS-RFP = molecular target: T5, D1-2NLS-RFP (Homo sapiens, UniProt P21728, A340R/A406K/D336K/E404K/E405R/F337K/R338F); test: D1-2NLS-RFP trafficking, HEK cells; type: cell-based; settings: 10 μM, 48 hours
T5 construct: expressed in transfected cells; host or cells: HEK cells
Experimental: By modifying the construct encoding D1-NLS-RFP, a DNA construct (D1-2NLS-RFP) was created to introduce a second NLS into the carboxyl tail of the dopamine D1 receptor by replacing the KKEEA (SEQ ID NO:171) sequence of the wild type D1 dopamine receptor with the NLS, KKKRK (SEQ ID NO:177).
HEK cells were transfected with DNA encoding this construct (D1-2NLS-RFP), and treated at intervals with the antagonist SCH-23390 (10 μM) as previously described. […] Control cells received no antagonist.

HA-D1-NLS = molecular target: T6, HA-D1-NLS (Homo sapiens, UniProt P21728, A340R/D336K/F337K/R338F); test: HA-D1-NLS cell surface receptor detected by fluorometry; type: cell-based; settings: removal of SCH 23390 (0.5 micromolar) for the last hour, no agonist
T6 construct: MGYPYDVPDYARTLNTSAMDGTGLVV; expressed in transfected cells; host or cells: HEK cells
Description: Wells in a multi-well plate were coated with poly-L-ornithine and then plated with 50,000 cells per well. […] Following this, the cells were fixed with paraformaldehyde, and cell surface receptors were detected with a rat anti-HA antibody and then a goat anti-rat antibody conjugated to FITC. The fluorescent signal was detected by fluorometry (Cytofluor).
Wells in a multi-well plate were coated with poly-L-ornithine and then plated with 50,000 cells per well. […] Following this, the cells were fixed with paraformaldehyde, and cell surface receptors were detected with a rat anti-HA antibody and then a goat anti-rat antibody conjugated to FITC. The fluorescent signal was detected by fluorometry (Cytofluor). The results are the average of five wells per experimental condition.
HEK cells were transfected with HA-D1-NLS in a multi-well plate were coated with poly-L-ornithine at a concentration of 50,000 cells per well. […] Following this, the cells were fixed with paraformaldehyde, and cell surface receptors were detected with a rat anti-HA antibody and then a goat anti-rat antibody conjugated to FITC. The fluorescent signal was detected by fluorometry (Cytofluor). The results are the average of five wells per experimental condition.

D1-NLS2-GFP = D1-NLS2-GFP (Homo sapiens, UniProt P21728, A335P/A340K/D336K/F337K/F341V/K339R/R338K); settings: 1 micromolar, 48 hrs
Description: Nuclei were visualised with DsRed-nuc (2 micrograms). Cells were examined by confocal microscopy.

[2] = molecular target: mu and delta opioid receptors (Homo sapiens, UniProt P35372+P41143); settings: cited from earlier work
D2-NLS-GFP = molecular target: T7, D2-NLS-GFP (Homo sapiens, UniProt P14416, E432K/I431K/K435R/R434K); test: D2-NLS-GFP translocation, HEK cells; type: cell-based
T7 construct: expressed in transfected cells; host or cells: HEK cells
Experimental: At 6, 22, 30 and 42 hours after transfection, the cells were treated with the antagonists. Cells were incubated 48 hrs after drug treatment and examined by confocal microscopy.

Cys-LT2-NLS-GFP = molecular target: T8, Cys-LT2-NLS-GFP (Homo sapiens, UniProt Q9NS75, D314R/E310K/N311K); test: Cys-LT2-NLS-GFP translocation, HEK cells; type: cell-based; settings: 10 micromolar
T8 construct: expressed in transfected cells; host or cells: HEK cells
T8 sequence (Q9NS75 1-346 E310K/N311K/D314R): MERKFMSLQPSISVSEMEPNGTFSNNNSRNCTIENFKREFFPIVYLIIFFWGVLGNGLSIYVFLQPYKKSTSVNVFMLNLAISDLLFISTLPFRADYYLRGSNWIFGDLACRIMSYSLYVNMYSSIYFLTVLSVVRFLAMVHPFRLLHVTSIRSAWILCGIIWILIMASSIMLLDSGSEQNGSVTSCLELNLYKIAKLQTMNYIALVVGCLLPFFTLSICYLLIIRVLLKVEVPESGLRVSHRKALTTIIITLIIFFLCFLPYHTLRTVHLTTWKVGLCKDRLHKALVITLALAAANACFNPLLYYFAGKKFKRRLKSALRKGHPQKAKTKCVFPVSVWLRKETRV
Experimental: The DNA encoding Cys-LT2-NLS-GFP (3 micrograms) was used to transfect HEK cells. These cells were treated with the cysteinyl leukotriene receptor antagonist, montelukast (10 micromolar). […] Control cells received no antagonist. The cells were examined by confocal microscopy.

D1-NLS-GFP [3] = molecular target: T3, D1-NLS-GFP; test: D1-NLS-GFP translocation, long-term agonist treatment, HEK cells; type: cell-based; settings: agonist 10 micromolar, 48 hours
Experimental: The cells were examined by confocal microscopy.
HEK cells were transfected with a DNA construct encoding D1-NLS-GFP (1.5 micrograms of DNA), and incubated with the agonist pergolide (10 micromolar) for 48 hours. […] The cells were examined by confocal microscopy.
Control HEK cells were transfected with a DNA construct encoding D1-NLS-GFP (1.5 micrograms of DNA) and left untreated.

T3 sequence (P21728 whole entry D336K/F337K/R338F/A340R): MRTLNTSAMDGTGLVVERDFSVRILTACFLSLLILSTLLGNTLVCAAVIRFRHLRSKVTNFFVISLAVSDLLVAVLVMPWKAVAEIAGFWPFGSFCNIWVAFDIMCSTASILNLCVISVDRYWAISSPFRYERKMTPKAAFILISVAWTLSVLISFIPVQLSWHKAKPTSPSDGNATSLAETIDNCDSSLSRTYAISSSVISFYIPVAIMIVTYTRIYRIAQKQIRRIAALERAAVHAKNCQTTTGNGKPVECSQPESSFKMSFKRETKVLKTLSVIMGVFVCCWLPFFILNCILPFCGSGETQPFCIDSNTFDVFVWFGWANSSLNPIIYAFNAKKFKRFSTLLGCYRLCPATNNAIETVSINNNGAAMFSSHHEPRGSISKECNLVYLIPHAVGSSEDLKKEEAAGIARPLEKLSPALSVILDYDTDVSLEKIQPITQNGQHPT
T2 sequence (Q01959 whole entry Y578K/C581K/S582R): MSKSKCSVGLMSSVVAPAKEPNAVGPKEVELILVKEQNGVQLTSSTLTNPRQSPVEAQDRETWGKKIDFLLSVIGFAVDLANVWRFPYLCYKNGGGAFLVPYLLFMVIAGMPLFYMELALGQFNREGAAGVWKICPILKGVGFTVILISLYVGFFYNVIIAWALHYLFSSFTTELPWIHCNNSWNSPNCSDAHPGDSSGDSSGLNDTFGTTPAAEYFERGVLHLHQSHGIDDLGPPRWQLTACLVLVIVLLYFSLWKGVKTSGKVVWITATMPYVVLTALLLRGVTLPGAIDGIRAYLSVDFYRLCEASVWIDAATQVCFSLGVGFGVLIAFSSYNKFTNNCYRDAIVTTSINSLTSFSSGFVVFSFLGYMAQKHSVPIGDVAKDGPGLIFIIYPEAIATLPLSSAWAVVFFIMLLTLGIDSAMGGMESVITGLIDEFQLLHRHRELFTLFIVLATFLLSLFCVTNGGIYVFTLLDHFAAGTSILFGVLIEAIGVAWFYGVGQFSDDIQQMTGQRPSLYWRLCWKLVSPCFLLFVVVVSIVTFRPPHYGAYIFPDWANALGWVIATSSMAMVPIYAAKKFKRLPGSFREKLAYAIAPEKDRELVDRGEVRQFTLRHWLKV
T7 sequence (P14416 whole entry I431K/E432K/R434K/K435R): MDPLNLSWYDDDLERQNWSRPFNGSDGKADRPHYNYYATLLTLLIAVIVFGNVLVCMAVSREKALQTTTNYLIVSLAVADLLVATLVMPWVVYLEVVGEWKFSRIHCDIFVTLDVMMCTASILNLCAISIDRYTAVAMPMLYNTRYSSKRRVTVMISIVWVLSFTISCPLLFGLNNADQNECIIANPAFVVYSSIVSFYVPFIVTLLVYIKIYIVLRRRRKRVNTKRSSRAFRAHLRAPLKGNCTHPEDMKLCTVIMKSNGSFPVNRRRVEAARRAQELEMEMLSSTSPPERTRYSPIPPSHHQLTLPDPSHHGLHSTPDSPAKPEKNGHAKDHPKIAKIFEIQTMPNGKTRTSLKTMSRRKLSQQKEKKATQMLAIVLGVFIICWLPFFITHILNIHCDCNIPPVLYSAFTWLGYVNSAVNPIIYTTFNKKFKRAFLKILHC
Chain of M1-NLS-GFP (P11229 whole entry A424K/R426K/D427R): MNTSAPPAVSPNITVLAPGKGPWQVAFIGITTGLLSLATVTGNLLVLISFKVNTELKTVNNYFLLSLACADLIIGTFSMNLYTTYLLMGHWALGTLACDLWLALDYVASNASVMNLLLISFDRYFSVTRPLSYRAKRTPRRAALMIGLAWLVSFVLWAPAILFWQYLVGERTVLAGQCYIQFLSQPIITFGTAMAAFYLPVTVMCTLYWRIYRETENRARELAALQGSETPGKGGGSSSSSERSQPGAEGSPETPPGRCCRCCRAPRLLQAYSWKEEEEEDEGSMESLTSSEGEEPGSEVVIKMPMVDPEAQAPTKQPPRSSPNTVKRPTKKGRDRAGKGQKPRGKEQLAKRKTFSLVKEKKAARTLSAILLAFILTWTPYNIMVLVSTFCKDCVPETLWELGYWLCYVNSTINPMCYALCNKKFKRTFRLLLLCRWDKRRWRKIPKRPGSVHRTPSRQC
T5 sequence (P21728 whole entry D336K/F337K/R338F/A340R/E404K/E405R/A406K): as the sequence (P21728 whole entry D336K/F337K/R338F/A340R) above, with E404K, E405R, A406K counted along it
T1 sequence (P28222 whole entry E374K/D375K/Q378R): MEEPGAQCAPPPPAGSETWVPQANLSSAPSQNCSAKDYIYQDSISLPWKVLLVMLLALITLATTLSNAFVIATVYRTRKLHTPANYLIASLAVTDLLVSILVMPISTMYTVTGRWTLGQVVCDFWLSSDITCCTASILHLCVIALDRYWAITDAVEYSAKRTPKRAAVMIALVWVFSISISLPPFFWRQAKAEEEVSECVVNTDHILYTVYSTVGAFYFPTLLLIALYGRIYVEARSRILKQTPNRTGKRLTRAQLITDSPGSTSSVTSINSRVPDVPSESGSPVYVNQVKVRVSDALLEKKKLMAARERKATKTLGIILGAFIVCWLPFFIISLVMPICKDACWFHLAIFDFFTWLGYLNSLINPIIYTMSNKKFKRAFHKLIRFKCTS
Chain of DAT-NLS-GFP (Q01959 whole entry Y578K/C581K/S582R): as the sequence (Q01959 whole entry Y578K/C581K/S582R) above
Chain of D1-IC3-NLS-GFP (P21728 9-446 M262K/S263K limits assumed): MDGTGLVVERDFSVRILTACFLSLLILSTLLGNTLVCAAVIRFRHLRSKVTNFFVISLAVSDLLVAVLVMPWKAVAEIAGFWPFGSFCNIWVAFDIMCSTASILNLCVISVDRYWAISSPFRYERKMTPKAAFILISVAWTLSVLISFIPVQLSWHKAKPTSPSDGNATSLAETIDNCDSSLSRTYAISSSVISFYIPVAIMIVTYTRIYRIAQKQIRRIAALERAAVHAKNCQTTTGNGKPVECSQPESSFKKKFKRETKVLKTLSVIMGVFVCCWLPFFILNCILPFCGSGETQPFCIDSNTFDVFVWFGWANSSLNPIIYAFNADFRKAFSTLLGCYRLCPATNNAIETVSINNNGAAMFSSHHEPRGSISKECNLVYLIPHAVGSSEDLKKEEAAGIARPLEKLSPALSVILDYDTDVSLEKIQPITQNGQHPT
T4 sequence (P21728 9-446 I49K/R50K/R52K/H53R limits assumed): as the sequence (P21728 9-446 M262K/S263K limits assumed) above, with I41K, R42K, R44K, H45R, K254M, K255S counted along it
Chain of D1-NLS2-GFP (P21728 9-446 A335P/D336K/F337K/R338K/K339R/A340K/F341V limits assumed): as the sequence (P21728 9-446 M262K/S263K limits assumed) above, with K254M, K255S, A327P, D328K, F329K, R330K, K331R, A332K, F333V counted along it
T6 sequence (P21728 whole entry D336K/F337K/R338F/A340R): as the sequence (P21728 whole entry D336K/F337K/R338F/A340R) above
Chain of mu and delta opioid receptors (P35372 whole entry): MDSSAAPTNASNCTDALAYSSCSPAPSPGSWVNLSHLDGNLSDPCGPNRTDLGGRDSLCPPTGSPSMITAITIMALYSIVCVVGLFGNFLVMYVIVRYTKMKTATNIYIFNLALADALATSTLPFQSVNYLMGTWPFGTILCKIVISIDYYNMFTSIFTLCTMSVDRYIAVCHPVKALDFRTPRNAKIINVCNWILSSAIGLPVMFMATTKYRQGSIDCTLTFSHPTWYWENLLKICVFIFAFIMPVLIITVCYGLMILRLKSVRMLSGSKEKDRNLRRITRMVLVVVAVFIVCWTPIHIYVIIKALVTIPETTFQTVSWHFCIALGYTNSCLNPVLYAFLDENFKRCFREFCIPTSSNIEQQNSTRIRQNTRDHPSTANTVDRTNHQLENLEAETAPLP
Chain of mu and delta opioid receptors (P41143 whole entry): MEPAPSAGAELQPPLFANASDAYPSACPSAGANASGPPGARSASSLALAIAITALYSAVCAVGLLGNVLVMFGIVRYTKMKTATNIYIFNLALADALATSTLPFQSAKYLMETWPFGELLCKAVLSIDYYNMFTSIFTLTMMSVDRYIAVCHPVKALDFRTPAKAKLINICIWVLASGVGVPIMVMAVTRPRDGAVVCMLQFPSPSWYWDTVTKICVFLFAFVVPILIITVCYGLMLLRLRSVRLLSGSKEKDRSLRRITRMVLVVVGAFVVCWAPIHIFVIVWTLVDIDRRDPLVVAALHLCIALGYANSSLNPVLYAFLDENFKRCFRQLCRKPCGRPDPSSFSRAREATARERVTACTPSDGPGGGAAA

iprotropium bromide
% cells with receptor expression in the cytoplasm only (M1-NLS-GFP): 17%
% cells with receptor expression in the nucleus (M1-NLS-GFP): 11%
% cells with receptor expression on the cell surface (M1-NLS-GFP): 72%

CC[C@@H](CO)NC(=O)[C@@H]1C=C2c3cccc4c3c(cn4C)C[C@H]2N(C)C1 [methysergide]
% cells with cell surface localisation (5HT1B-NLS-GFP): 62%
% cells with receptor in the nucleus (5HT1B-NLS-GFP): 25%

COC(=O)[C@H]1[C@@H](OC(=O)c2ccccc2)C[C@@H]2CC[C@H]1N2C [cocaine]
% cells with cell surface or cytoplasmic expression of DAT-NLS-RFP (DAT-NLS-RFP): 75%
% cells with transporter expression in the nucleus and cytoplasm (DAT-NLS-RFP): 25%

OC1(c2ccc(Cl)cc2)c2ccccc2C2=NCCN21 (stereo not drawn) [mazindol]
% cells with transporter expression in the nucleus and cytoplasm (DAT-NLS-GFP): 39%
% cells with transporter expression on the cell surface and in cytoplasm (DAT-NLS-GFP): 61%

CN1CCc2cc(Cl)c(O)cc2[C@@H](c2ccccc2)C1 [SCH-23390]
% cells receptor in nucleus (D1-NLS-GFP [1]; 0.2 μM): 19%
% cells receptor on surface (D1-NLS-GFP [1]; 0.2 μM): 32%
% cells receptor on surface and in nucleus (D1-NLS-GFP [1]; 0.2 μM): 49%
% cells receptor in nucleus (D1-NLS-GFP [1]; 0.5 μM): 20%
% cells receptor on surface (D1-NLS-GFP [1]; 0.5 μM): 36%
% cells receptor on surface and in nucleus (D1-NLS-GFP [1]; 0.5 μM): 44%
% cells receptor in nucleus (D1-NLS-GFP [1]; 1 μM): 15%
% cells receptor on surface (D1-NLS-GFP [1]; 1 μM): 39%
% cells receptor on surface and in nucleus (D1-NLS-GFP [1]; 1 μM): 46%
% cells receptor in nucleus (D1-NLS-GFP [1]; 5 μM): 12%
% cells receptor on surface (D1-NLS-GFP [1]; 5 μM): 46%
% cells receptor on surface and in nucleus (D1-NLS-GFP [1]; 5 μM): 42%
% cells receptor on surface (D1-NLS-GFP [1]; 10 μM, HEK cells): 58%
% cells receptor on surface and in nucleus (D1-NLS-GFP [1]; 10 μM, HEK cells): 32%
% cells with receptor in the nucleus (D1-IC1-NLS-GFP): 23%
% cells with receptor on the cell surface or in the cytoplasm (D1-IC1-NLS-GFP): 77%
% cells with receptor in the nucleus (D1-IC3-NLS-GFP): 84%
% cells with receptor on the surface (D1-IC3-NLS-GFP): 15%
% cells with cell surface label (D1-2NLS-RFP): 51%
% cells with nuclear label (D1-2NLS-RFP): 49%
loss of HA-D1-NLS receptors from the cell surface (HA-D1-NLS): 33%
% cells with receptor expression in the nucleus (D1-NLS2-GFP): 22%
% cells with receptor on the cell surface or in cytoplasm (D1-NLS2-GFP): 78%

C[C@@H](NC(=O)[C@@H](N)Cc1ccc(O)cc1)C(=O)NCC(=O)N(C)[C@@H](Cc1ccccc1)C(=O)NCCO [DAMGO]
potency at co-expressed versus individual receptors [2]: reduced potency

CC(N)Cc1ccccc1 (stereo not drawn) [amphetamine]
% cells with cell surface or cytoplasmic expression of DAT-NLS-RFP (DAT-NLS-RFP): 34%
% cells with transporter expression in the nucleus and cytoplasm (DAT-NLS-RFP): 66%
effect on the trafficking of the DAT-NLS-RFP to the nucleus (DAT-NLS-RFP): no inhibitory effect

(+)butaclamol
% cells with cell surface labelling (D2-NLS-GFP): 90%
% cells with cytoplasmic label (D2-NLS-GFP): 5%
% cells with nuclear labelling (D2-NLS-GFP): 5%

CC(C)(O)c1ccccc1CC[C@@H](SCC1(CC(=O)O)CC1)c1cccc(/C=C/c2ccc3ccc(Cl)cc3n2)c1 [montelukast]
% cells with cell surface expression of receptor (Cys-LT2-NLS-GFP): 90%
% cells with nuclear localisation of the receptor (Cys-LT2-NLS-GFP): 10%

CCN1CCC[C@H]1CNC(=O)c1c(O)c(Cl)cc(Cl)c1OC [raclopride]
% cells with cell surface labelling (D2-NLS-GFP; 10 micromolar, 48 hrs): 80%
% cells with cytoplasmic label (D2-NLS-GFP; 10 micromolar, 48 hrs): 15%
% cells with nuclear labelling (D2-NLS-GFP; 10 micromolar, 48 hrs): 5%

CCCN1C[C@H](CSC)C[C@@H]2c3cccc4[nH]cc(c34)C[C@H]21 [perglolide, pergolide]
% cells with receptor expression at the cell surface (D1-NLS-GFP [3]): 59%
